According to patent US10561638B2, “Methods for treating dependence” (Biotie Therapies, Inc., priority 2007, dated 2020):
“Also recorded” adds a separate entry of the source.

Columns and labels:
[1] = target: protein kinase (non-selective); experiment: Enzyme selectivity assay; type: biochemical
[2] = test system: pithed SHRs; experiment: Pressor response to pre-ganglionic nerve stimulation in pithed SHRs; type: in vivo, spontaneously hypertensive rats
Experimental: The in vivo hemodynamic activity of nepicastat was further assessed in conscious, restrained SHRs, a model having high sympathetic drive to cardiovascular tissues. Hemodynamic study in SHRs. Male SHRs (15-16 week old) were used in the study. The animals were lightly anesthetized with ether and the left femoral artery and vein were catheterized for measurement of blood pressure and drug administration, respectively. The animals were placed in restrainers and allowed to recover for 30-40 min. After obtaining baseline measurements, the animals were treated, orally, with either vehicle or the appropriate dose of nepicastat and hemodynamic parameters were continuously recorded for 4 h. The animals were then anesthetized with pentobarbital, placed on a heating pad (37° C.) and ventilated with a Harvard rodent ventilator. After administration of atropine (1 mg/kg, iv) and tubocurarine (1 mg/kg, iv), the animals were pithed through the orbit of the eye with a stainless steel rod. The […] rod was stimulated electrically with 1 ms pulses of 80V at different frequencies (0.15, 0.45, 1.5, 5, 15 Hz) to obtain frequency-pressor response curves. […] The response was slow in onset, reaching its plateau in 3-4 h. […] Following this study, the rats were pithed and the effects of nepicastat on the pressor response to pre-ganglionic nerve stimulation (PNS) of the spinal cord were evaluated 5 h after dosing.

[3] = test system: tissue norepinephrine and dopamine levels; experiment: Tissue catecholamines in Sprague-Dawley rats after 10 days b.i.d. dosing; type: in vivo; settings: for dopamine/norepinephrine ratio vs vehicle: 2.0 and 6.2 mg/kg b.i.d., day 10, hydrochloride; for norepinephrine levels vs vehicle: 2.0 and 6.2 mg/kg
Experimental: Male Sprague-Dawley rats, weighing 180-200 grams, were fed an iodine deficient diet (Purina, 5891C, Lot 1478, 0.066±0.042 mg iodine/kg sample) ad libitum 14 days prior to treatment. Animals were weighed and randomly assigned to one of the following treatment groups (n=12 per group): nepicastat at 2.0 mg/kg, nepicastat at 6.2 mg/kg, Methimazole at 1 mg/kg, or vehicle at 1 ml/kg. Each group of rats was dosed orally in the evening and the following morning, approximately 12 hours apart, for 10 consecutive days.
At four hours after the second dose, on day 10, rats were anesthetized with halothane, decapitated, and the cortex, striatum, and mesenteric artery were harvested and weighed. Tissue samples were not harvested from the methimazole groups as they only served as positive controls for determination of thyroid function. The mesenteric artery, cortex, and striatum were immediately placed in 0.4 M iced perchloric acid and analyzed for norepinephrine and dopamine levels the same day using HPLC.
To statistically evaluate changes in T3 and T4 levels, a change from baseline was calculated from the day −3 time point. A non-parametric two-way within subject analysis of variance (ANOVA) was conducted. Also a one-way ANOVA was performed to detect if a significant difference from control occurred. Pairwise analyses between controls and each treatment group were carried out using Fisher's LSD strategy to control the experiment-wise error rate. For statistical analysis of catecholamine levels, a one-way ANOVA with factor DOSE was performed. Pairwise analyses between treated and controls at each dose were carried out using Fisher's LSD strategy to control the experiment-wise error rate.

[4] = test system: tissue norepinephrine and dopamine levels; experiment: Tissue catecholamines in Sprague-Dawley rats after single oral dose; type: in vivo
Experimental: In SHRs there were significant changes in the dopamine/norepinephrine ratio in the mesenteric artery at doses of 0.3 mg/kg, in the left ventricle at 3.0 mg/kg, and in the cerebral cortex at 10 mg/kg. […] In a second dose-response study in SHRs, three doses were administered 12 hours apart at either 3.0, 10, 30, or 100 mg/kg, and tissue was harvested six hours after the third dose. Nepicastat caused a significant dose dependent decrease in norepinephrine (10 mg/kg) and increase in dopamine (3.0 mg/kg) and the dopamine/norepinephrine ratio (3.0 mg/kg) in the left ventricle and mesenteric artery. The effects of nepicastat on dopamine and norepinephrine concentrations, and the dopamine/norepinephrine ratio in the cerebral cortex were significant only at 30 and 100 mg/kg.

[5] = test system: anesthetized SHRs; experiment: Acute i.v. treatment of anesthetized SHRs, blood pressure and renal function; type: in vivo, spontaneously hypertensive rats; settings: 3.0 mg/kg i.v.
Text: The calculated renal vascular resistance was decreased following dosing. An attempt was made using the DA-1 antagonist SCH-23390 to assess if the renal vasodilator effects of nepicastat were mediated by DA-1 receptors.

[6] = test system: mice; experiment: Clinical observations and behavioral tests in mice, single oral dose; type: in vivo
Experimental: A single oral dose of vehicle or nepicastat formulation was administered by gavage to each mouse using a rodent intubator. The oral route was selected because it is a proposed clinical route of administration. Dose volumes were calculated on the basis of individual body weights recorded before dosing (body weight data are not tabulated in this report). Food and water were withheld from the mice 2.5 to 3.5 hours before dosing, instead of 1.5 hours as specified in the protocol.
Clinical observations were recorded before dosing. Beginning 60 minutes after dosing, mice in each treatment group were evaluated in groups of up to 3 over an interval of approximately 10 minutes each for clinical observations and protocol-specified behavioral tests. One mouse in the 30-mg/kg group and 1 mouse in the 100-mg/kg group died after dosing and they were removed from the study. Surviving mice were euthanatized and removed from the study at the end of the observation/testing period.
[…] Clinical observations and behavioral tests were initiated 60 minutes after administration of the test formulation. At the end of the observation period, all surviving mice were euthanatized and removed from the study.

[7] = Safety and tolerability in squirrel monkeys; type: in vivo
Experimental: Six squirrel monkeys, three non-lesioned and three lesioned (received 2 mg/kg MPTP 3 months prior), were used to study safety and tolerability of nepicastat. Animals received nepicastat at a concentration of 0.5, 2.0, or 5.0 mg/kg twice daily, (10 am and 2 pm), for 5 days with a two-day washout between the different dose levels. Nepicastat was administered via oral syringe at the 0.5, 2.0 […] mg/kg doses and as oral gavage at the 5.0 mg/kg dose.

[8] = Toxicity studies in dogs (acute, 1-month); type: in vivo
Experimental: Dose selection was based on data from two studies with nepicastat. […] In a 1-month study, doses of 5, 20, or 80 mg/kg were administered to dogs orally once daily.

[9] = test system: SHRs; settings: rat, in vivo
[10] = 30, 100, 300 mg/kg single oral dose

Cl.NCc1c[nH]c(=S)n1[C@H]1CCc2c(F)cc(F)cc2C1 [nepicastat, (S)-5-Aminomethyl-1-(5,7-difluoro-1,2,3,4-tetrahydronaphth-2-yl)-2,3-dihydro-2-thioxo-1H-imidazole hydrochloride]
IC50 [1]: > 10 µM
hypertensive and tachycardic responses to preganglionic nerve stimulation ([2]; 3 mg/kg p.o., 5 hours after dosing): significantly attenuated the hypertensive and tachycardic responses
heart rate response to PNS ([2]; 5 h after dosing): not significantly affected
maximum shift in the frequency-pressor response curve ([2]; 5 h after dosing): ~5 fold
dopamine levels vs vehicle ([3]; all three tissues, 2.0 or 6.2 mg/kg): not significantly (p>0.05) different
dopamine/norepinephrine ratio vs vehicle ([3]; cortex (and striatum)): not in the cortex; also recorded: not significantly (p>0.05) different
norepinephrine levels vs vehicle ([3]; cortex): not significantly (p>0.05) different
norepinephrine levels vs vehicle ([3]; mesenteric artery): significantly (p<0.05) lower
dopamine/norepinephrine ratio vs vehicle ([3]; mesenteric artery): significantly raised; also recorded: significantly (p<0.05) higher
norepinephrine levels vs vehicle ([3]; striatum): marginally (p<0.10) lower
dose with significant increase in dopamine/norepinephrine ratio ([4]; cerebral cortex, only at this dose): 100 mg/kg
dose with significant increase in dopamine/norepinephrine ratio ([4]; left ventricle, 6 h after single oral dose): 1.0 mg/kg
dose with significant increase in dopamine/norepinephrine ratio ([4]; mesenteric artery, 6 h after single oral dose): 3.0 mg/kg
calculated renal vascular resistance [5]: decreased
renal blood flow, urine production, sodium and potassium excretion [5]: did not lower renal blood flow or alter urine production or urinary excretion of sodium or potassium
mean arterial pressure ([5]; over 3 hours): decreased mean arterial pressure
clinical or gross behavior changes [6, 10]: No treatment-related clinical or gross behavior changes
rectal body temperature vs vehicle-control [6, 10]: Lower body temperatures
gross motor behavior ([6]; acute 1.0-30 mg/kg p.o.): no significant effects on gross motor behavior
deaths after dosing ([6]; one mouse each at 30 and 100 mg/kg): the deaths were considered incidental
adverse finding in one non-lesioned monkey ([7]; 5.0 mg/kg twice daily, final two days): light beige colored loose stools
tolerability ([7]; 0.5 and 2.0 mg/kg twice daily, 5 days): well tolerated at the two lower doses
1-month toxicity ([8]; 80 mg/kg/day orally once daily): Clinical signs of toxicity were present
acute toxicity ([8]; single oral dose of 400 mg/kg): transient clinical signs of toxicity
motor activity (MA) [9]: unaffected
